Measurements published in patent publication US7462345B2, “Radionuclide labeling of vitamin B12 and coenzymes thereof” (Mayo Foundation for Medical Education and Research, priority 1995, dated 2008).

Legend:
[1] = pH of 1000 μg/10 ml normal saline solutions; type: physicochemical; conditions: 1000 μg in 10 ml normal saline, no buffers, room temperature
Method: Under dim light, 1000 μg of the non-labeled methyl-, adenosyl-, and cyanocobalamin-b-(4-aminobutyl)amide-DTPA, as well as 1000 μg of cyanocobalamin and DTPA (Sigma, St. Louis, Mo. 63178), were separately dissolved in 10 ml of normal saline at room temperature. Each of the five 1000 μg/10 ml samples were stored in sealed, aluminum-Tapped 10 ml vials to prevent exposure to light. No buffers were added to the solutions. The pH of the solutions, measured by a Beckman 40 pH meter (Beckman Instruments, Fullerton, Calif.): Cyanocobalamin=5.75, DTPA=3.78; cyano, methyl and adenosylcobalamin-DTPA analogues were 5.75, 6.10, and 6.19, respectively.

Intrinsic Factor (IF) = test: modified intrinsic factor blocking antibody (IFBA) assay; type: binding; conditions: for averaged percent binding to IF: average of five patients, estimated from counts vs Clinical run
Method: (§1) Under dim light, 1000 μg of the non-labeled methyl-, adenosyl-, and cyanocobalamin-b-(4-aminobutyl)amide-DTPA, as well as 1000 μg of cyanocobalamin and DTPA (Sigma, St. Louis, Mo. 63178), were separately dissolved in 10 ml of normal saline at room temperature. Each of the five 1000 μg/10 ml samples were stored in sealed, aluminum-Tapped 10 ml vials to prevent exposure to light. No buffers were added to the solutions. The pH of the solutions, measured by a Beckman 40 pH meter (Beckman Instruments, Fullerton, Calif.): Cyanocobalamin=5.75, DTPA=3.78; cyano, methyl and adenosylcobalamin-DTPA analogues were 5.75, 6.10, and 6.19, respectively. To assess in vitro binding to Intrinsic Factor (IF) and Transcobalamins (TC), the intrinsic factor blocking antibody (IFBA) and Unsaturated vitamin B12 Binding Capacity (UBBC) assays were performed with serum randomly obtained from five patients being evaluated for pernicious anemia at the Mayo Clinic. The IFBA and UBBC assays were first performed for clinical purposes as previously described by V. F. Fairbanks et al., Mayo Clin. Proc., 58, 203 (1983); Intrinsic Factor Blocking Antibody [^57Co] Radioassay-Package insert, Diagnostic Products Corp.; D. Grossowicz et al., Proc. Exp. Biol. 109, 604 (1962) and C. Gottlieb et al., Blood 25, 6 (1965). Next, the serum from the same five patients underwent modified IFBA and UBBC assays. Specifically, 1 μl of the five previously described solutions were separately incubated with purified IF or serum, to potentially saturate all IF and TC binding sites. After incubation for 20 minutes at room temperature and for another 20 minutes at 4° C., 500 μl of the stock (1000 μg/l) Cobalt-57-cyanocobalamin (Mallinckrodt Medical. Inc., St. Louis, Mo. 63134) solution was added and the usual IFBA and UBBC protocols were then followed. All supernatant activity was counted for four minutes on a gamma counter (Micromedix 10/20, Huntsville, Ala. 35805).

Transcobalamins (TC) = test: modified Unsaturated vitamin B12 Binding Capacity (UBBC) assay; parameters: species or system human; conditions: for averaged percent binding to the transcobalamin proteins: average of five patients; for UBBC supernatant counts: NSB = counts <100
Method: as §1

[2] = PT 1, negative <1.11, positive (binding to IF) >1.43, indeterminate 1.11-1.43
[3] = PT 2, negative <1.11, positive >1.43
[4] = PT 3, negative <1.11, positive >1.43
[5] = PT 4, negative <1.11, positive >1.43
[6] = PT 5, negative <1.11, positive >1.43
[7] = serum PT 1, preincubated with 1 μl of 1000 μg/10 ml solution, then Co-57-cyanocobalamin, Clinical Run 741

SMILES	pH of the solution [1]	IFBA supernatant counts (Intrinsic Factor (IF); PT 1, Clinical Run 11942.5) [counts]	IFBA value (in parentheses) (Intrinsic Factor (IF); [2])	IFBA supernatant counts (Intrinsic Factor (IF); PT 2, Clinical Run 11656) [counts]	IFBA value (in parentheses) (Intrinsic Factor (IF); [3])	IFBA supernatant counts (Intrinsic Factor (IF); PT 3, Clinical Run 11780) [counts]	IFBA value (in parentheses) (Intrinsic Factor (IF); [4])	IFBA supernatant counts (Intrinsic Factor (IF); PT 4, Clinical Run 11617) [counts]	IFBA value (in parentheses) (Intrinsic Factor (IF); [5])	IFBA supernatant counts (Intrinsic Factor (IF); PT 5, Clinical Run 11653.5) [counts]	IFBA value (in parentheses) (Intrinsic Factor (IF); [6])	averaged percent binding to IF (Intrinsic Factor (IF)) [%]	averaged percent binding to the transcobalamin proteins (Transcobalamins (TC)) [%]	UBBC supernatant counts (Transcobalamins (TC); [7]) [counts]	UBBC supernatant counts (Transcobalamins (TC); serum PT 2, Clinical Run 632) [counts]	UBBC supernatant counts (Transcobalamins (TC); serum PT 3, Clinical Run 2097) [counts]	UBBC supernatant counts (Transcobalamins (TC); serum PT 4, Clinical Run 1378) [counts]	UBBC supernatant counts (Transcobalamins (TC); serum PT 5, Clinical Run 1682) [counts]
CC1=C2N=C(C=C3N=C(C(C)=C4[N-]C(C(CC(N)=O)C4(C)CCC(=O)NCC(C)OP(=O)([O-])OC4C(CO)OC(n5cnc6cc(C)c(C)cc65)C4O)C4(C)N=C1C(CCC(=O)NCCCCNC(=O)CN(CCN(CCN(CC(=O)O)CC(=O)O)CC(=O)O)CC(=O)O)C4(C)CC(N)=O)C(CCC(N)=O)C3(C)C)C(CCC(N)=O)C2(C)CC(N)=O.[CH2-]C1OC(n2cnc3c(N)ncnc32)C(O)C1O.[Co+3] (stereo not drawn) [ADB12DTPA, adenosylcobalamin-b-(4-aminobutyl)-amide-DTPA]	6.19	6758.5	(2.30)	6841.5	(1.74)	6828.5	(1.74)	7046.5	(1.64)	7096.5	(1.72)	41.0	90.4	54.6	62.6	590.3	126.9	163.9
CC1=C2N=C(C=C3N=C(C(C)=C4[N-]C(C(CC(N)=O)C4(C)CCC(=O)NCC(C)OP(=O)([O-])OC4C(CO)OC(n5cnc6cc(C)c(C)cc65)C4O)C4(C)N=C1C(CCC(=O)NCCCCNC(=O)CN(CCN(CCN(CC(=O)O)CC(=O)O)CC(=O)O)CC(=O)O)C4(C)CC(N)=O)C(CCC(N)=O)C3(C)C)C(CCC(N)=O)C2(C)CC(N)=O.[C-]#N.[Co+3] (stereo not drawn) [CNB12DTPA, cyanocobalamin-b-(4-aminobutyl)-amide-DTPA]	5.75	5151	(2.30)	5133.5	(2.31)	5338.5	(2.22)	6002.5	(1.98)	5973.5	(1.99)	52.9	66.4	222.6	216.9	713.3	433.2	643.2
